Test results from the NIST ThermoML archive (doi:10.1016/j.jct.2011.08.016).

Details: Liquid, Vibrating tube method

CCCCCCCCCC [decane]
mass density [kg/m3]
Details	313.07 K	323 K	332.87 K	342.78 K	352.8 K	362.73 K
1000 kPa	715.64	707.96	700.33	692.65	–	–
2000 kPa	716.68	708.93	701.26	693.68	686.08	678.44
3000 kPa	717.38	709.81	702.21	694.72	687.17	679.58
4000 kPa	718.16	710.88	703.17	695.7	688.23	680.71
5000 kPa	719.02	711.52	704.12	696.68	689.3	681.85
6000 kPa	719.65	712.48	705.07	697.68	690.33	682.98
7000 kPa	720.52	713.3	705.98	698.61	691.38	684.09
8000 kPa	721.28	714.23	706.88	699.57	692.38	685.16
9000 kPa	722.11	715.05	707.79	700.54	693.41	686.25
10000 kPa	723.13	715.91	708.65	701.49	694.37	687.29
11000 kPa	723.65	716.74	709.52	702.4	695.36	688.32
12000 kPa	724.48	717.54	710.39	703.29	696.32	689.33
13000 kPa	725.48	718.35	711.26	704.14	697.29	690.34
14000 kPa	726.15	719.15	712.07	705.05	698.22	691.28
15000 kPa	726.86	719.92	712.9	705.93	699.15	692.36
16000 kPa	727.49	720.7	713.71	706.79	700.03	–
17000 kPa	728.18	721.46	714.52	707.6	700.94	–
18000 kPa	729.07	722.22	715.32	–	701.82	–
18010 kPa	–	–	–	708.57	–	–
19000 kPa	729.72	722.97	716.1	709.45	702.71	–
20000 kPa	730.26	723.71	716.88	710.3	703.59	–
21000 kPa	731.22	724.45	717.65	710.91	704.44	–
22000 kPa	731.8	725.18	718.43	711.92	705.25	–
23000 kPa	732.7	725.92	719.19	712.48	706.14	–
24000 kPa	733.26	726.62	719.99	713.42	706.95	–
25000 kPa	733.93	727.42	720.76	714.1	707.83	–
